{"source": "patent US8765712B2", "about": "“Agent for preventing and treating pityriasis versicolor” (Justus-Liebig-Universitaet Giessen, priority 2009, dated 2014)", "key": {"M. furfur CBS 1878": {"tested_on": "M. furfur CBS 1878", "assay": "Agar diffusion assay on pigment-inducing medium (p-agar) with TRP as sole nitrogen source", "type": "cell-based, Malassezia furfur", "protocol": "The pigment-inducing medium (p-agar) is composed of (for 1 liter medium)\nAfter autoclaving for 30 min at 1 bar, the following is added:\nAt approx. 50° C., the following heat-labile component is added:\nThe pH value is approximately pH 5.0.\nEach 25 ml of the medium are poured into petri dishes with a diameter of 10 cm. A suspension of M. furfur CBS 1878 (approx. 5 inoculation loops of a strain previously grown on Dixon's agar) is suspended in 1 ml aq. dest., transferred to the p-agar and spread by tilting the plate. […] The pigment composition can be determined after extraction and separation via thin layer chromatography.\nFor this purpose, M. furfur CBS 1878 is spread on the surface of an agar plate with pigment-inducing medium as describe above, subsequently 4 mm-holes are punched into the agar using a sterile punch. […] The agar diffusion assay is performed with transaminase inhibitor e.g. aminooxyacetate (Sigma) in water, which is adjusted to pH 5 with 1 n NaOH. Concentrations are 0.05 molar top left; 0.1 molar top right; 0.25 molar bottom left, and 0.5 molar bottom right."}, "pityriasis versicolor": {"tested_on": "pityriasis versicolor", "assay": "Topical application in humans", "type": "in vivo", "text": "Transaminase inhibitors such as aminooxyacetate and/or cycloserine, e.g. D-cycloserine, DL-cycloserine, L-cycloserine or one of the derivatives thereof like e.g. terizidone are suitable for an application in humans. A topical application of 5% in unguentum emulsificans aquosum, applied over several days, is well tolerated without side effects. For prophylactic purposes, a 0.05-5% w/w preparation is used, preferably as shaking mixture/suspension cutanea aquosa, aqueous, oily, or alcoholic suspension, emulsion, paste, cream, ointment, spray, lipophilic gel, hydrophilic gel or plaster, shampoo, bath additive or mud, since the entire body should be treated if possible. For prophylaxis, application is performed daily up to several-day intervals. The same applies to the therapeutic use. D-cycloserine is preferably used in aqueous solution, e.g. 0.2 molar, adjusted to pH 7 with e.g. phosphate buffer."}, "M. furfur": {"tested_on": "M. furfur", "assay": "Agar diffusion assay on complete medium Dixon's agar", "conditions": "4 days, concentrations as in FIG. 1 (0.05-0.5 molar)", "method": "For this purpose, an identical experimental approach as described above is chosen and the fungus is grown on a complete medium Dixon's agar for 4 days. Transaminase inhibitor, e.g. aminooxyacetate solution (e.g. Sigma) or D-cycloserine, DL-cycloserine, L-cycloserine or a derivative thereof such as e.g. terizidone, is added in above mentioned concentrations at the beginning of the experiment."}}, "note": "“Also recorded” adds a separate entry of the source.", "data": [{"smiles": "NC1CONC1=O", "note": "(racemic) [DL-cycloserine]", "values": [{"measurement": "suppression of pigment formation in vitro", "setting": "M. furfur CBS 1878", "value": "comparable suppression"}, {"measurement": "suppression of pigment formation in vivo in humans", "setting": "pityriasis versicolor", "value": "comparable suppression"}]}, {"smiles": "N[C@@H]1CONC1=O", "note": "[D-cycloserine]", "values": [{"measurement": "suppression of pigment formation in vitro", "setting": "M. furfur CBS 1878", "value": "comparable suppression"}, {"measurement": "healing of lesions", "setting": "pityriasis versicolor; aqueous solution 0.2 molar, pH 7 (phosphate buffer), twice a day, after three days", "value": "complete healing of lesions"}, {"measurement": "side effects / tolerability", "setting": "pityriasis versicolor; aqueous solution 0.2 molar, pH 7, twice a day", "value": "without side effects and is very well tolerated"}, {"measurement": "suppression of pigment formation in vivo in humans", "setting": "pityriasis versicolor", "value": "comparable suppression"}]}, {"smiles": "N[C@H]1CONC1=O", "note": "[L-cycloserine]", "values": [{"measurement": "suppression of pigment formation in vitro", "setting": "M. furfur CBS 1878", "value": "comparable suppression"}, {"measurement": "suppression of pigment formation in vivo in humans", "setting": "pityriasis versicolor", "value": "comparable suppression"}]}, {"smiles": "Cl.NOCC(=O)O.NOCC(=O)O", "note": "[aminooxyacetate, O-(carboxymethyl)hydroxylamine hemihydrochloride]", "values": [{"measurement": "pigment synthesis (tryptophan-dependent pathway)", "setting": "M. furfur CBS 1878; 4-days old culture, TRP as sole nitrogen source, 20 μl in 4 mm holes, 0.05, 0.1, 0.25, 0.5 molar in water, pH 5, hemihydrochloride", "value": "completely inhibited; also recorded: abolished"}, {"measurement": "growth of the fungus", "setting": "M. furfur CBS 1878; pigment-inducing medium, TRP as sole nitrogen source, 0.05-0.5 molar, pH 5", "value": "inhibited"}, {"measurement": "effect of specific inhibition of transamination on complete medium", "setting": "M. furfur", "value": "no effect"}]}, {"smiles": "O=C1NOCC1/N=C/c1ccc(/C=N/C2CONC2=O)cc1", "note": "(stereo not drawn) [terizidone]", "values": [{"measurement": "suppression of pigment formation in vitro", "setting": "M. furfur CBS 1878", "value": "inhibit pigment formation"}]}]}
